The record followed here is patent US8076352B2, “Administration of carboline derivatives useful in the treatment of cancer and other diseases” (PTC Therapeutics, Inc., priority 2004, dated 2011).

The test system of this experiment is hypoxia-inducible endogenous VEGF expression in HeLa cells. As to the kind of experiment: Hypoxia-inducible endogenous VEGF expression, VEGF ELISA of conditioned media (dose-response EC50). Format: cell-based. The settings on record: Homo sapiens, HeLa cells, hypoxic conditions (1% O2). Put shortly: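 HeLa cells were cultured 24-48 h under hypoxia (1% O2, 5% CO2, balance N2) with or without compound. Conditioned-media VEGF protein was measured by ELISA against a standard curve. EC50 and CC50 come from percentage-inhibition curves over, e.g., seven concentrations, with maximal inhibition set at 100%.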

SMILES strings stand for the structures. Where only a bound is given, the exact number is not on record here.

Consider `O=C(Oc1ccc(Br)cc1)N1CCc2c([nH]c3ccc(Cl)cc23)C1c1ccc(OCC(O)CO)cc1` (stereo not shown) [Compound 630], for which the half-maximal effective concentration (EC50) – broadly, the concentration that produces a half-maximal response – was under 8 nM. As for `Cc1ccc(OC(=O)N2CCc3c([nH]c4ccc(Cl)cc34)C2c2ccc(OCC(O)CO)cc2)cc1` (stereo not shown) [Compound 631], the figure is under 8 nM.

Take `O=C(Oc1ccc([N+](=O)[O-])cc1)N1CCc2c([nH]c3ccc(Cl)cc23)C1c1ccc(OCC(O)CO)cc1` (stereo not shown) [Compound 632]: the concentration for a half-maximal effect (EC50) was 8 to 40 nM. As for `COc1ccc(OC(=O)N2CCc3c([nH]c4ccc(Cl)cc34)C2c2ccc(OCC(O)CO)cc2)cc1` (stereo not shown) [Compound 635], the figure is 8 to 40 nM; as for `CC(=O)N1CCN(CC(O)COc2ccc(C3c4[nH]c5ccc(Cl)cc5c4CCN3C(=O)Oc3ccc(F)cc3)cc2)CC1` (stereo not shown) [Compound 637], under 8 nM; as for `O=C(Oc1ccc(F)cc1)N1CCc2c([nH]c3ccc(Cl)cc23)C1c1ccc(OCC(O)CN2CCOCC2)cc1` (stereo not shown) [Compound 638], under 8 nM. As for `O=C(Oc1ccc(Cl)cc1)N1CCc2c([nH]c3ccc(Cl)cc23)C1c1ccc(OCCCCCl)cc1` (stereo not shown) [Compound 660], the figure is under 8 nM. As for `COCCOCCOc1ccc(C2c3[nH]c4ccc(Cl)cc4c3CCN2C(=O)Oc2ccccc2)cc1` (stereo not shown) [Compound 670], the figure is under 8 nM. Compound `COCCOCCOc1ccc(C2c3[nH]c4ccc(Cl)cc4c3CCN2C(=O)Oc2ccccc2Cl)cc1` (stereo not shown) [Compound 674] returned an EC50 of 8 to 40 nM. In the case of `COCCOCCOc1ccc(C2c3[nH]c4ccc(Cl)cc4c3CCN2C(=O)Oc2ccc(Cl)cc2)cc1` (stereo not shown) [Compound 675] it was 8 to 40 nM; in that of `COCCOCCOc1ccc(C2c3[nH]c4ccc(Cl)cc4c3CCN2C(=O)Oc2ccc(C)cc2)cc1` (stereo not shown) [Compound 677], 8 to 40 nM. As for `COCCOCCOc1ccc(C2c3[nH]c4ccc(Cl)cc4c3CCN2C(=O)Oc2ccc(OC)cc2)cc1` (stereo not shown) [Compound 678], the figure is 40 to 200 nM; as for `COCCOCCOc1ccc(C2c3[nH]c4ccc(Cl)cc4c3CCN2C(=O)Oc2ccc(Br)cc2)cc1` (stereo not shown) [Compound 680], under 8 nM; as for `COCCOCCOc1ccc(C2c3[nH]c4ccc(Cl)cc4c3CCN2C(=O)Oc2ccc([N+](=O)[O-])cc2)cc1` (stereo not shown) [Compound 681], 8 to 40 nM.

Take `O=C(Oc1ccc(Cl)cc1)N1CCc2c([nH]c3ccc(Cl)cc23)C1c1ccc(OCCCCN2CCCC2)cc1` (stereo not shown) [Compound 698]: the EC50 was 8 to 40 nM. On to `O=C(Oc1ccc(Cl)cc1)N1CCc2c([nH]c3ccc(Cl)cc23)C1c1ccc(OCCCCNCCO)cc1` (stereo not shown) [Compound 699], for which the EC50 lay in the range of 8 to 40 nM.

Compound `CC(C)NCCCCOc1ccc(C2c3[nH]c4ccc(Cl)cc4c3CCN2C(=O)Oc2ccc(Cl)cc2)cc1` (stereo not shown) [Compound 700] returned an EC50 of 8 to 40 nM. Turning to `COCCCNCCCCOc1ccc(C2c3[nH]c4ccc(Cl)cc4c3CCN2C(=O)Oc2ccc(Cl)cc2)cc1` (stereo not shown) [Compound 701], the half-maximal effective concentration (EC50) is 8 to 40 nM. In the case of `O=C(Oc1ccc(Cl)cc1)N1CCc2c([nH]c3ccc(Cl)cc23)C1c1ccc(OCCCCN2CCOCC2)cc1` (stereo not shown) [Compound 702] it was 8 to 40 nM; in that of `O=C(Oc1ccc(Cl)cc1)N1CCc2c([nH]c3ccc(Cl)cc23)C1c1ccc(OCCCCN2CCCCC2)cc1` (stereo not shown) [Compound 703], 8 to 40 nM. As for `CN1CCN(CCCCOc2ccc(C3c4[nH]c5ccc(Cl)cc5c4CCN3C(=O)Oc3ccc(Cl)cc3)cc2)CC1` (stereo not shown) [Compound 704], the figure is 40 to 200 nM.

Turning to `O=C(Oc1ccc(Cl)cc1)N1CCc2c([nH]c3ccc(Cl)cc23)C1c1ccc(OCCCCn2ccnc2)cc1` (stereo not shown) [Compound 705], the concentration for a half-maximal effect (EC50) is 8 to 40 nM. In the case of `O=C(Oc1ccc(Cl)cc1)N1CCc2c([nH]c3ccc(Cl)cc23)C1c1ccc(OCCCCn2cncn2)cc1` (stereo not shown) [Compound 706] it was under 8 nM. As for `O=C(Oc1ccccc1)N1CCc2c([nH]c3ccc(Cl)cc23)C1c1ccc(OCCCCl)cc1` (stereo not shown) [Compound 710], the figure is under 8 nM; as for `O=C(Oc1ccc(F)cc1)N1CCc2c([nH]c3ccc(Cl)cc23)C1c1ccc(OCCCCl)cc1` (stereo not shown) [Compound 712], under 8 nM.

Turning to `O=C(Oc1ccccc1Cl)N1CCc2c([nH]c3ccc(Cl)cc23)C1c1ccc(OCCCCl)cc1` (stereo not shown) [Compound 713], the EC50 is 8 to 40 nM. As to `O=C(Oc1ccc(F)cc1)N1CCc2c([nH]c3ccc(Cl)cc23)C1c1ccc(OCCCCCl)cc1` (stereo not shown) [Compound 719], the concentration giving a half-maximal response (EC50) is under 8 nM.

Compound `O=C(Oc1ccc(F)cc1)N1CCc2c([nH]c3ccc(Cl)cc23)C1c1ccc(OCCCCCCCl)cc1` (stereo not shown) [Compound 723] registered an EC50 of under 8 nM. Take `O=C(Oc1ccc(F)cc1)N1CCc2c([nH]c3ccc(Cl)cc23)C1c1ccc(OCCCCNCCO)cc1` (stereo not shown) [Compound 735]: the half-maximal effective concentration (EC50) was under 8 nM. As for `O=C(Oc1ccc(F)cc1)N1CCc2c([nH]c3ccc(Cl)cc23)C1c1ccc(OCCCCN2CCCC2)cc1` (stereo not shown) [Compound 736], the figure is under 8 nM; as for `COCCCNCCCCOc1ccc(C2c3[nH]c4ccc(Cl)cc4c3CCN2C(=O)Oc2ccc(F)cc2)cc1` (stereo not shown) [Compound 737], 8 to 40 nM; as for `O=C(Oc1ccc(F)cc1)N1CCc2c([nH]c3ccc(Cl)cc23)C1c1ccc(OCCCCN2CCOCC2)cc1` (stereo not shown) [Compound 738], under 8 nM. In the case of `O=C(Oc1ccc(F)cc1)N1CCc2c([nH]c3ccc(Cl)cc23)C1c1ccc(OCCCCN2CCCCC2)cc1` (stereo not shown) [Compound 739], the EC50 was under 8 nM. In the case of `CN1CCN(CCCCOc2ccc(C3c4[nH]c5ccc(Cl)cc5c4CCN3C(=O)Oc3ccc(F)cc3)cc2)CC1` (stereo not shown) [Compound 740] it was 40 to 200 nM.

The compound `O=C(Oc1ccc(F)cc1)N1CCc2c([nH]c3ccc(Cl)cc23)C1c1ccc(OCCCCNCCCn2ccnc2)cc1` (stereo not shown) [Compound 741] showed a half-maximal effective concentration (EC50) of 40 to 200 nM.

`O=C(Oc1ccc(F)cc1)N1CCc2c([nH]c3ccc(Cl)cc23)C1c1ccc(OCCCCn2ccnc2)cc1` (stereo not shown) [Compound 742]: the EC50 is under 8 nM. As to `O=C(Oc1ccc(F)cc1)N1CCc2c([nH]c3ccc(Cl)cc23)C1c1ccc(OCCCCn2cncn2)cc1` (stereo not shown) [Compound 743], the EC50 was under 8 nM.

On to `O=C(Oc1ccc(F)cc1)N1CCc2c([nH]c3ccc(Cl)cc23)C1c1ccc(OCCCCCCNCCO)cc1` (stereo not shown) [Compound 772], for which the 50% effective concentration (EC50) is under 8 nM. In the case of `O=C(Oc1ccc(F)cc1)N1CCc2c([nH]c3ccc(Cl)cc23)C1c1ccc(OCCCCCCN2CCCC2)cc1` (stereo not shown) [Compound 773] it was under 8 nM; in that of `CC(C)NCCCCCCOc1ccc(C2c3[nH]c4ccc(Cl)cc4c3CCN2C(=O)Oc2ccc(F)cc2)cc1` (stereo not shown) [Compound 774], 8 to 40 nM. In turn, `COCCCNCCCCCCOc1ccc(C2c3[nH]c4ccc(Cl)cc4c3CCN2C(=O)Oc2ccc(F)cc2)cc1` (stereo not shown) [Compound 775] came in with an EC50 of under 8 nM. Turning to `O=C(Oc1ccc(F)cc1)N1CCc2c([nH]c3ccc(Cl)cc23)C1c1ccc(OCCCCCCN2CCOCC2)cc1` (stereo not shown) [Compound 776], the concentration giving a half-maximal response (EC50) was under 8 nM. As for `O=C(Oc1ccc(F)cc1)N1CCc2c([nH]c3ccc(Cl)cc23)C1c1ccc(OCCCCCCN2CCCCC2)cc1` (stereo not shown) [Compound 777], the figure is under 8 nM; as for `CN1CCN(CCCCCCOc2ccc(C3c4[nH]c5ccc(Cl)cc5c4CCN3C(=O)Oc3ccc(F)cc3)cc2)CC1` (stereo not shown) [Compound 778], under 8 nM. As for `O=C(Oc1ccc(F)cc1)N1CCc2c([nH]c3ccc(Cl)cc23)C1c1ccc(OCCCCCCNCCCn2ccnc2)cc1` (stereo not shown) [Compound 779], the figure is 40 to 200 nM. In the case of `O=C(Oc1ccc(F)cc1)N1CCc2c([nH]c3ccc(Cl)cc23)C1c1ccc(OCCCCCCn2ccnc2)cc1` (stereo not shown) [Compound 780] it was under 8 nM.
